Patent US10052330B2, “Substituted pyrido[3,4-b]pyrazines as Syk inhibitors” (HUTCHISON MEDIPHARMA LIMITED, priority 2011, dated 2018)
pIC50: −log10 of the molar value.

Tests used:
[1] = target: Syk kinase (Homo sapiens, UniProt P43405); experiment: Syk kinase enzymatic assay (Kit-Tyr 2 Peptide); assay type: biochemical; settings: 8 concentrations, 1 μM down to 0.0003 μM; upper bound of each range is 'less than'; read-out: IC50: Enzymatic Activity (Syk kinase)
[2] = system: RBL-2H3 cells; experiment: IgE-induced Beta-hexosaminidase secretion in RBL-2H3 cells; assay type: cell-based; settings: Rattus norvegicus, RBL-2H3, RBL-2H3 cells sensitized with SPE-7, stimulated with DNP-BSA; upper bound of each range is 'less than'; read-out: IC50, IgE-induced Beta-hexosaminidase secretion

Row | pIC50 [1] | SMILES | pIC50 [2]
1 | 7.00 to 9.00 | c1cnc2c(NC[C@@H]3CNCCO3)nc(-c3ccc(N4CCCC4)nc3)cc2n1 [Compound 103] | 6.00 to 7.00
2 | 6.00 to 7.00 | CN(C)c1ccc(-c2cc3nccnc3c(NC[C@H]3CNCCO3)n2)cn1 [Compound 106] | 6.00 to 7.00
3 | 6.00 to 7.00 | NCC1CCN(c2nc(-c3ccc(N4CCOCC4)cc3)cc3nccnc23)CC1 [Compound 108] | 6.00 to 7.00
4 | 7.00 to 9.00 | Fc1cc(-c2cc3nccnc3c(N3CCC4(CCCNC4)C3)n2)ccc1N1CCOCC1 (stereo not shown) [Compound 109] | 7.00 to 9.00
5 | 7.00 to 9.00 | Cc1cc(-c2cc3nccnc3c(N3CCC4(CCCNC4)C3)n2)ccc1N1CCOCC1 (stereo not shown) [Compound 110] | 7.00 to 9.00
6 | 7.00 to 9.00 | CN(C)c1ccc(-c2cc3nccnc3c(N3CCC4(CCCNC4)C3)n2)cc1 (stereo not shown) [Compound 111] | 7.00 to 9.00
7 | 7.00 to 9.00 | c1cnc2c(N3CCC4(CCCNC4)C3)nc(-c3ccc(N4CCCC4)cc3)cc2n1 (stereo not shown) [Compound 112] | 6.00 to 7.00
8 | 7.00 to 9.00 | c1cnc2c(NC[C@@H]3CNCCO3)nc(-c3ccc(N4CCCC4)cc3)cc2n1 [Compound 114] | 7.00 to 9.00
9 | 6.00 to 7.00 | Cc1cc(-c2cc3nccnc3c(NC[C@H]3CNCCO3)n2)ccc1N1CCOCC1 [Compound 115] | 7.00 to 9.00
10 | 7.00 to 9.00 | c1cnc2c(NC[C@@H]3CCCNC3)nc(-c3ccc(N4CCCC4)cc3)cc2n1 [Compound 119] | 6.00 to 7.00
11 | 7.00 to 9.00 | Cc1cc(-c2cc3nccnc3c(NC[C@@H]3CCCNC3)n2)ccc1N1CCOCC1 [Compound 120] | 6.00 to 7.00

Second part, the molecule before the results:

Row | SMILES | pIC50 [1] | pIC50 [2]
12 | COc1ccc(-c2cc3nccnc3c(NC[C@H]3CCCNC3)n2)c(F)c1 [Compound 68] | 6.00 to 7.00 | 6.00 to 7.00
13 | Cc1ccc(-c2cc3nccnc3c(NC[C@H]3CCCNC3)n2)cn1 [Compound 69] | 6.00 to 7.00 | 6.00 to 7.00
14 | CCN(CC)c1ccc(-c2cc3nccnc3c(NCC3CCCNC3)n2)cc1 (stereo not shown) [Compound 73] | 7.00 to 9.00 | 6.00 to 7.00
15 | Nc1ccc(-c2cc3nccnc3c(NCC3CCCNC3)n2)cc1 (stereo not shown) [Compound 74] | 7.00 to 9.00 | 6.00 to 7.00
16 | Nc1ccc(-c2cc3nccnc3c(NC[C@@H]3CCCNC3)n2)cc1Cl [Compound 75] | 6.00 to 7.00 | 6.00 to 7.00
17 | Cc1ccc(-c2cc3nccnc3c(NC[C@@H]3CCCNC3)n2)cc1Cl [Compound 76] | 6.00 to 7.00 | 6.00 to 7.00
18 | COCCOc1ccc(-c2cc3nccnc3c(NCC3CCCNC3)n2)cc1 (stereo not shown) [Compound 78] | 7.00 to 9.00 | 6.00 to 7.00
19 | CC(C)(C)c1ccc(-c2cc3nccnc3c(NC[C@H]3CCCNC3)n2)cc1 [Compound 79] | 7.00 to 9.00 | 6.00 to 7.00
20 | Cc1ccc(-c2cc3nccnc3c(NC[C@H]3CCCNC3)n2)cc1Cl [Compound 80] | 7.00 to 9.00 | 6.00 to 7.00
21 | CC(C)(C)c1ccc(-c2cc3nccnc3c(NC[C@@H]3CCCNC3)n2)cc1 [Compound 83] | 7.00 to 9.00 | 6.00 to 7.00
22 | CNc1ccc(-c2cc3nccnc3c(NC[C@@H]3CCCNC3)n2)cc1 [Compound 84] | 6.00 to 7.00 | 6.00 to 7.00
23 | Clc1ccc(-c2cc3nccnc3c(NC[C@H]3CCCNC3)n2)cc1 [Compound 85] | 7.00 to 9.00 | 6.00 to 7.00
24 | CC(C)Oc1ccc(-c2cc3nccnc3c(NC[C@H]3CCCNC3)n2)cc1F [Compound 86] | 7.00 to 9.00 | 6.00 to 7.00
25 | c1cnc2c(NC[C@H]3CCCNC3)nc(-c3ccc(N4CCOCC4)nc3)cc2n1 [Compound 87] | 7.00 to 9.00 | 6.00 to 7.00
26 | CC(C)Oc1ccc(-c2cc3nccnc3c(NC[C@@H]3CCCNC3)n2)cc1F [Compound 88] | 6.00 to 7.00 | 6.00 to 7.00
27 | c1cnc2c(NC[C@@H]3CCCNC3)nc(-c3ccc(N4CCOCC4)nc3)cc2n1 [Compound 89] | 6.00 to 7.00 | 6.00 to 7.00
28 | CN(C)c1ccc(-c2cc3nccnc3c(NC[C@H]3CNCCO3)n2)cc1 [Compound 92] | 6.00 to 7.00 | 6.00 to 7.00
29 | COc1ccc(-c2cc3nccnc3c(NC[C@H]3CNCCO3)n2)cc1F [Compound 95] | 6.00 to 7.00 | 6.00 to 7.00
30 | c1cnc2c(NC[C@H]3CNCCO3)nc(-c3ccc(N4CCOCC4)nc3)cc2n1 [Compound 97] | 6.00 to 7.00 | 6.00 to 7.00
31 | CC(C)Oc1ccc(-c2cc3nccnc3c(NC[C@@H]3CNCCO3)n2)cc1F [Compound 100] | 6.00 to 7.00 | 6.00 to 7.00
32 | CN(C)c1ccc(-c2cc3nccnc3c(NC[C@@H]3CNCCO3)n2)cn1 [Compound 102] | 7.00 to 9.00 | 7.00 to 9.00
